Patent publication US20250026766A1, “Thiazolopyridyl Amide Derivatives as DNA Polymerase Theta Inhibitors” (BeiGene, Ltd., priority 2022, published 2025)

target: Pol Theta (1-894) (Homo sapiens (Human), UniProt O75417); assay: Biochemical Pol Theta (1-894) ATPase IC50 assay (ADP-Glo, ssDNA substrate); conditions: ADP-Glo assay with ssDNA substrate, room temperature
Description: Baculovirus Expression of Human POL theta (1-894)
Human POL Theta (1-894)-His-pFastBac1 baculovirus samples were generated using the Bac-to-Bac baculovirus expression system (Invitrogen) according to the manufacturer's protocol. […] Baculovirus amplification was achieved using infected SF9 cells at 1:2000 virus/cells ratios, and grown for 96 hours at 27° C. post-transfection. The expression scaled up for each protein was carried out in the flask 3 L from CORNING. 4 L of 3×10^6 cells/mL Sf9 cells (Expression System, Invitrogen) grown in SF900TM II SFM insect medium (Expression System) were infected with virus stock at 1:200 virus/cell ratios, and grown for 48 hours at 27° C. post-transfection. The infected cell culture was harvested by centrifugation at 6000 rpm for 15 min 4° C. in a SORVALL LYNX6000 centrifuge. The cell pellets were stored at −80° C.
The human POL Theta (1-894)-His produced as described above, were purified from Sf9 baculovirus-infected insect cell paste. The cells were lysed using sonication method, and the lysates were clarified by centrifugation.
Enzymatic reactions of Pol Theta (1-894) were performed using ADP-Glo assay with ssDNA substrate. Pol Theta (1-894) was expressed in baculovirus expression system. The inhibition activities testing for the compound disclosed herein were carried out at room temperature in assay buffer containing 40 mM Tris pH 7.5, 20 mM MgCl2, 1 mM DTT, 0.01% BSA and 0.05% Tween-20. Compounds in DMSO were dispensed into wells of a black 384 well plate (Corning 4514) using D300e digital dispenser (Tecan). The ranges of compounds final concentration were 2.62 nM˜10000 nM. 3 μL 2× enzyme solution containing 12.5 nM enzyme was added to wells. […] After 1 hour reaction, 5 μL ADP-Glo reagent (Promga V9102) was added and incubated for 40 minutes. 10 μL Kinase Detection reagent was added and incubated for 40 minutes. Luminescence was measured on a microplate reader (PHERAstar FSX, BMG labtech). The IC50 values were calculated based on inhibition of enzyme activity in the presence of increasing concentrations of compounds.

Pol Theta (1-894), sequence (O75417 1-894): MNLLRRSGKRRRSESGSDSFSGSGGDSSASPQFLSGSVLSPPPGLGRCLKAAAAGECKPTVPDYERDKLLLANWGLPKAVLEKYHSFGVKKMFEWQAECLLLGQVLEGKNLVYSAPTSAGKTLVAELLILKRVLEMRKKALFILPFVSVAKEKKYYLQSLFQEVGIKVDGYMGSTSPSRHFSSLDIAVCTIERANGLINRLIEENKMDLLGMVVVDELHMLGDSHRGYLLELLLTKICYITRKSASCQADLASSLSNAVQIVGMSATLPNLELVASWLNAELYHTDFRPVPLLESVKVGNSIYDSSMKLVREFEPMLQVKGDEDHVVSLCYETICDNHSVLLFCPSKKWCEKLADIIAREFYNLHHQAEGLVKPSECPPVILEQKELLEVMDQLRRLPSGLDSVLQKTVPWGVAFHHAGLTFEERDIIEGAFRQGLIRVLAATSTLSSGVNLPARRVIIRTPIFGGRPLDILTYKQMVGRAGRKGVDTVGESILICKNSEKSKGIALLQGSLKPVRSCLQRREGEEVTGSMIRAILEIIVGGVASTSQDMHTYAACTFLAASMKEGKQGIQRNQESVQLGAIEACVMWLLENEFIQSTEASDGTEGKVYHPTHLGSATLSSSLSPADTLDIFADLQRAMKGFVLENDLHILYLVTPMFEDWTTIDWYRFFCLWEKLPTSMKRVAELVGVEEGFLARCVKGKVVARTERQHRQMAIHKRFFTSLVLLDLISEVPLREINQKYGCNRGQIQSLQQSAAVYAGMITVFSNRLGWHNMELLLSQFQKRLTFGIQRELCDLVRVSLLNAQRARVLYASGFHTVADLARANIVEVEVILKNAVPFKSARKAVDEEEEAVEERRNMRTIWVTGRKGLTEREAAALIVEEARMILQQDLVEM

SMILES | IC50 [nM]
COc1ccccc1-c1cnncc1C(=O)Nc1nc2ccc(-c3ccc(NC(C)=O)cc3)nc2s1 [Example 16, N-(5-(4-acetamidophenyl)thiazolo[5,4-b]pyridin-2-yl)-5-(2-methoxyphenyl)pyridazine-4-carboxamide] | 8.2
COCc1ccc(OC)c(-c2cc(C)ncc2C(=O)Nc2nc3ccc(-c4ccc(NC(C)=O)cc4)nc3s2)c1 [Example 28, N-(5-(4-acetamidophenyl)thiazolo[5,4-b]pyridin-2-yl)-4-(2-methoxy-5-(methoxymethyl)phenyl)-6-methylnicotinamide] | 256
COc1ccc(C#N)cc1-c1cc(C)ncc1C(=O)Nc1nc2ccc(-c3ccc(N(C)S(C)(=O)=O)cc3)nc2s1 [Example 32, 4-(5-cyano-2-methoxyphenyl)-6-methyl-N-(5-(4-(N-methylmethylsulfonamido)phenyl)thiazolo[5,4-b]pyridin-2-yl)nicotinamide] | 26
COc1ccc(C#N)cc1-c1cc(C)ncc1C(=O)Nc1nc2ccc(-c3ccc(C(=O)N4CCC4)c(C)c3)nc2s1 [Example 151, N-(5-(4-(azetidine-1-carbonyl)-3-methylphenyl)thiazolo[5,4-b]pyridin-2-yl)-4-(5-cyano-2-methoxyphenyl)-6-methylnicotinamide] | 73
COc1ccccc1-c1cnncc1C(=O)Nc1nc2ccc(-c3ccc(N(C)C(C)=O)cc3)nc2s1 [Example 56, 5-(2-methoxyphenyl)-N-(5-(4-(N-methylacetamido)phenyl)thiazolo[5,4-b]pyridin-2-yl)pyridazine-4-carboxamide] | 15
COc1ccc(C#N)cc1-c1cc(C)ncc1C(=O)Nc1nc2ccc(-c3ccc(C(N)=O)c(C)c3)nc2s1 [Example 110, N-(5-(4-carbamoyl-3-methylphenyl)thiazolo[5,4-b]pyridin-2-yl)-4-(5-cyano-2-methoxyphenyl)-6-methylnicotinamide] | 5.8
COc1ccc(C#N)cc1-c1cc(C)ncc1C(=O)Nc1nc2ccc(-c3ccc(N4CCCC4=O)cc3)nc2s1 [Example 45, 4-(5-cyano-2-methoxyphenyl)-6-methyl-N-(5-(4-(2-oxopyrrolidin-1-yl)phenyl)thiazolo[5,4-b]pyridin-2-yl)nicotinamide] | 32
COc1ccc(C#N)cc1-c1cc(F)ncc1C(=O)Nc1nc2ccc(-c3ccc(C#N)cc3)nc2s1 [Example 39, 4-(5-cyano-2-methoxyphenyl)-N-(5-(4-cyanophenyl)thiazolo[5,4-b]pyridin-2-yl)-6-fluoronicotinamide] | 73
COc1ccccc1-c1cnncc1C(=O)Nc1nc2ccc(Oc3ccc(Cl)c(C)c3)nc2s1 [Example 129, N-(5-(4-chloro-3-methylphenoxy)thiazolo[5,4-b]pyridin-2-yl)-5-(2-methoxyphenyl)pyridazine-4-carboxamide] | 23
Cc1cc(-c2cccc3[nH]ncc23)c(C(=O)Nc2nc3ccc(-c4ccc(C#N)cc4)nc3s2)cn1 [Example 61, N-(5-(4-cyanophenyl)thiazolo[5,4-b]pyridin-2-yl)-4-(1H-indazol-4-yl)-6-methylnicotinamide] | 121
COc1ccc(C#N)cc1-c1cc(C)ncc1C(=O)Nc1nc2ccc(-c3ccc(NC(=O)C(C)C)c(C)c3)nc2s1 [Example 51, 4-(5-cyano-2-methoxyphenyl)-N-(5-(4-isobutyramido-3-methylphenyl)thiazolo[5,4-b]pyridin-2-yl)-6-methylnicotinamide] | 15
COc1ccccc1-c1cnncc1C(=O)Nc1nc2ccc(Oc3ccc(C#N)cc3)nc2s1 [Example 152, N-(5-(4-cyanophenoxy)thiazolo[5,4-b]pyridin-2-yl)-5-(2-methoxyphenyl)pyridazine-4-carboxamide] | 21
COc1ccccc1-c1cnncc1C(=O)Nc1nc2ccc(-c3ccc(C#N)cc3C)nc2s1 [Example 121, N-(5-(4-cyano-2-methylphenyl)thiazolo[5,4-b]pyridin-2-yl)-5-(2-methoxyphenyl)pyridazine-4-carboxamide] | 4.9
COc1ccc(C#N)cc1-c1cnccc1C(=O)Nc1nc2ccc(-c3ccc(NC(C)=O)cc3)nc2s1 [Example 22, N-(5-(4-acetamidophenyl)thiazolo[5,4-b]pyridin-2-yl)-3-(5-cyano-2-methoxyphenyl)isonicotinamide] | 33
COc1ccc(C#N)cc1-c1cc(C)ncc1C(=O)Nc1nc2ccc(-c3ccc(C(N)=O)cc3)nc2s1 [Example 21, N-(5-(4-carbamoylphenyl)thiazolo[5,4-b]pyridin-2-yl)-4-(5-cyano-2-methoxyphenyl)-6-methylnicotinamide] | 81
COc1ccccc1-c1cnncc1C(=O)Nc1nc2ccc(C(=O)NCCO)nc2s1 [Example 112, N-(2-hydroxyethyl)-2-(5-(2-methoxyphenyl)pyridazine-4-carboxamido)thiazolo[5,4-b]pyridine-5-carboxamide] | 60
COc1ccccc1-c1cnncc1C(=O)Nc1nc2ccc(-c3ccc(N4CCCC4=O)cc3)nc2s1 [Example 93, 5-(2-methoxyphenyl)-N-(5-(4-(2-oxopyrrolidin-1-yl)phenyl)thiazolo[5,4-b]pyridin-2-yl)pyridazine-4-carboxamide] | 20
COc1ccc(C#N)cc1-c1cc(C)ncc1C(=O)Nc1nc2ccc(-c3ccc(CO)cc3)nc2s1 [Example 44, 4-(5-cyano-2-methoxyphenyl)-N-(5-(4-(hydroxymethyl)phenyl)thiazolo[5,4-b]pyridin-2-yl)-6-methylnicotinamide] | 14
COc1ccccc1-c1cnncc1C(=O)Nc1nc2ccc(-c3ccc(NC(C)=O)c(F)c3)nc2s1 [Example 142, N-(5-(4-acetamido-3-fluorophenyl)thiazolo[5,4-b]pyridin-2-yl)-5-(2-methoxyphenyl)pyridazine-4-carboxamide] | 5.4
COc1ccccc1-c1cnncc1C(=O)Nc1nc2ccc(-c3ccc(C#N)cn3)nc2s1 [Example 158, N-(5-(5-cyanopyridin-2-yl)thiazolo[5,4-b]pyridin-2-yl)-5-(2-methoxyphenyl)pyridazine-4-carboxamide] | 8.2
COc1ccc(C#N)cc1-c1cnccc1C(=O)Nc1nc2ccc(-c3ccc(Cl)cc3)nc2s1 [Example 11, N-(5-(4-chlorophenyl)thiazolo[5,4-b]pyridin-2-yl)-3-(5-cyano-2-methoxyphenyl)isonicotinamide] | 57
COc1ccc(C#N)cc1-c1cc(C)ncc1C(=O)Nc1nc2ccc(-c3ccc(CC#N)c(C)c3)nc2s1 [Example 171, 4-(5-cyano-2-methoxyphenyl)-N-(5-(4-(cyanomethyl)-3-methylphenyl)thiazolo[5,4-b]pyridin-2-yl)-6-methylnicotinamide] | 13
Cc1cc(-c2cc(C#N)c(=O)n(C)c2)c(C(=O)Nc2nc3ccc(-c4ccc(C#N)cc4)nc3s2)cn1 [Example 147, 5-cyano-N-(5-(4-cyanophenyl)thiazolo[5,4-b]pyridin-2-yl)-1,6′-dimethyl-6-oxo-1,6-dihydro-[3,4′-bipyridine]-3′-carboxamide] | 53
COc1ccc(C#N)cc1-c1cc(CC#N)ncc1C(=O)Nc1nc2ccc(-c3ccc(C#N)cc3)nc2s1 [Example 34, 4-(5-cyano-2-methoxyphenyl)-6-(cyanomethyl)-N-(5-(4-cyanophenyl)thiazolo[5,4-b]pyridin-2-yl)nicotinamide] | 16
